Assay results published in patent US20080234333A1, “Novel Hydroxamic Acid Derivative as Peptide Deformylase Inhibitor and Manufacturing Method Thereof” (priority 2005, published 2008).
Converted amounts (≈) assume the structure as drawn. Like-named read-outs stand apart in the source and are kept apart here.

Tests used:
[1] = Acute toxicity study in mice; conditions: male, mouse, in vivo, 4000 mg/kg; ICR mice (♂, 4 weeks), oral 4,000 mg/kg dose, observed for 14 days
Protocol: The acute toxicity of the compounds of Example 7, 13, 18 and 47 were tested using several groups of ICR mice each of 6 mice.

[2] = system: Methicillin-resistant Staphylococcus aureus; assay: MIC, microdilution method in 96-well plates; type: cell-based; conditions: read-out: MIC Methicillin-resistant Staphylococcus aureus
Protocol: (§1) Minimum inhibitory concentrations (MICs) were determined using the microdilution method in 96-well format plates. Each of the compounds of Examples was dissolved in dimethyl sulfoxide to a concentration of 2 mg/mL and stored at 4° C. until used. They were diluted in Mueller-Hinton Broth (MHB) and used for MIC determination. The range of concentrations tested was […] final concentration using a two-fold dilution system. Plates were incubated at 37° C. and MIC were recorded after 24 hours of incubation for bacteria.
(§2) Linezolid and vancomycin were used as standard antibiotics, respectively.

Streptococcus agalactiae = assay: MIC, microdilution method in 96-well plates; type: cell-based; conditions: read-out: MIC Streptococcus agalactiae
Protocol: as §1, §2

Streptococcus pneumoniae = assay: MIC, microdilution method in 96-well plates; type: cell-based; conditions: read-out: MIC Streptococcus pneumoniae
Protocol: as §1, §2

Streptococcus pyogenes = assay: MIC, microdilution method in 96-well plates; type: cell-based; conditions: read-out: MIC Streptococcus pyogenes
Protocol: as §1, §2

[3] = system: Vancomycin-resistant Enterococcus faecalis; assay: MIC, microdilution method in 96-well plates; type: cell-based; conditions: read-out: MIC Vancomycin-resistant Enterococcus faecalis
Protocol: as §1, §2

[4] = Mueller-Hinton Broth, 37° C., 24 hours of incubation

Structure (SMILES)	LD50 at 14 days [1]	MIC [2, 4]	MIC (Streptococcus agalactiae; [4])	MIC (Streptococcus pneumoniae; [4])	MIC (Streptococcus pyogenes; [4])	MIC [3, 4]	MIC ([2]; 24 h)	MIC (Streptococcus agalactiae; 24 h)	MIC (Streptococcus pneumoniae; 24 h)	MIC (Streptococcus pyogenes; 24 h)	MIC ([3]; 24 h)
CC(C)C[C@H](CC(=O)NO)C(=O)N[C@H](C(=O)N1CCC(NC(=O)Cc2ccccc2)CC1)C(C)(C)C [Example 7, (R)-N^1-[(S)-2,2-Dimethyl-1-(4-phenylacetylamino-piperidine-1-carbonyl)-propyl]-N^4-hydroxy-2-isobutyl-succinamide]	> 4000 mg/kg										
CC(C)(C)[C@H](NC(=O)[C@@H](CC(=O)NO)CC1CCCC1)C(=O)N1CCC(NC(=O)c2ccccc2)CC1 [Example 8, (R)-N^1-[(S)-1-(4-Benzoylamino-piperidine-1-carbonyl)-2,2-dimethyl-propyl]-2-cyclopentylmethyl-N^4-hydroxy-succinamide]		12.5 µg/mL (≈ 24.3 µM)	1.6 µg/mL (≈ 3.11 µM)	6.3 µg/mL (≈ 12.2 µM)	1.6 µg/mL (≈ 3.11 µM)	25 µg/mL (≈ 48.6 µM)					
CC(C)(C)[C@H](NC(=O)[C@@H](CC(=O)NO)CC1CCCC1)C(=O)N1CCC(NC(=O)Cc2ccccc2)CC1 [Example 10, (R)-2-Cyclopentylmethyl-N^1-[(S)-2,2-dimethyl-1-(4-phenylacetylamino-piperidine-1-carbonyl)-propyl]-N^4-hydroxy-succinamide]		50 µg/mL (≈ 94.6 µM)	0.2 µg/mL (≈ 0.378 µM)	50 µg/mL (≈ 94.6 µM)	0.8 µg/mL (≈ 1.51 µM)	50 µg/mL (≈ 94.6 µM)					
CC(C)(C)[C@H](NC(=O)[C@@H](CC(=O)NO)CC1CCCC1)C(=O)N1CCC(NC(=O)c2ccc(C(F)(F)F)cc2)CC1 [Example 13, (R)-2-Cyclopentylmethyl-N^1-{(S)-2,2-dimethyl-1-[4-(4-trifluoromethyl-benzoylamino)-piperidine-1-carbonyl]-propyl}-N^4-hydroxy-succinamide]	> 4000 mg/kg	12.5 µg/mL (≈ 21.5 µM)	0.2 µg/mL (≈ 0.343 µM)	3.1 µg/mL (≈ 5.32 µM)	0.4 µg/mL (≈ 0.687 µM)	6.3 µg/mL (≈ 10.8 µM)					
CC(C)(C)[C@H](NC(=O)[C@@H](CC(=O)NO)CC1CCCC1)C(=O)N1CCC(NC(=O)c2ccc(F)cc2)CC1 [Example 15, (R)-2-Cyclopentylmethyl-N^1-{(S)-1-[4-(4-fluoro-benzoylamino)-piperidine-1-carbonyl]-2,2-dimethyl-propyl}-N^4-hydroxy-succinamide]		6.3 µg/mL (≈ 11.8 µM)	0.2 µg/mL (≈ 0.375 µM)	6.3 µg/mL (≈ 11.8 µM)	0.2 µg/mL (≈ 0.375 µM)	6.3 µg/mL (≈ 11.8 µM)					
CCCC[C@H](CC(=O)NO)C(=O)N[C@H](C(=O)N1CCC(NC(=O)c2ccc(C)cc2)CC1)C(C)(C)C [Example 18, (R)-2-Butyl-N^1-{(S)-2,2-dimethyl-1-[4-(4-methyl-benzoylamino)-piperidine-1-carbonyl]-propyl}-N^4-hydroxy-succinamide]	> 4000 mg/kg										
Cc1ccc(C(=O)NC2CCN(C(=O)[C@@H](NC(=O)[C@@H](CC(=O)NO)CC3CCCC3)C(C)(C)C)CC2)cc1 [Example 20, (R)-2-Cyclopentylmethyl-N^1-{(S)-2,2-dimethyl-1-[4-(4-methyl-benzoylamino)-piperidine-1-carbonyl]-propyl}-N^4-hydroxy-succinamide]		25 µg/mL (≈ 47.3 µM)	0.4 µg/mL (≈ 0.757 µM)	0.8 µg/mL (≈ 1.51 µM)	0.4 µg/mL (≈ 0.757 µM)	12.5 µg/mL (≈ 23.6 µM)					
CC(C)(C)[C@H](NC(=O)[C@H](CC1CCCC1)CN(O)C=O)C(=O)N1CCC(NC(=O)c2ccccc2)CC1 [Example 25, N-(1-{(S)-2-[(R)-2-Cyclopentylmethyl-3-(formyl-hydroxy-amino)-propionylamino]-3,3dimethyl-butyryl}-piperidin-4-yl)-benzamide]		12.5 µg/mL (≈ 24.3 µM)	0.1 µg/mL (≈ 0.194 µM)	6.3 µg/mL (≈ 12.2 µM)	0.4 µg/mL (≈ 0.777 µM)	6.3 µg/mL (≈ 12.2 µM)					
CC(C)(C)[C@H](NC(=O)[C@H](CC1CCCC1)CN(O)C=O)C(=O)N1CCC(NC(=O)c2ccc(C(F)(F)F)cc2)CC1 [Example 28, N-(1-{(S)-2-[(R)-2-Cyclopentylmethyl-3-(formyl-hydroxy-amino)-propionylamino]-3,3-dimethyl-4-butyryl}-piperidin-4-yl)-4-trifluoromethyl-benzamide]		3.1 µg/mL (≈ 5.32 µM)	0.1 µg/mL (≈ 0.172 µM)	1.6 µg/mL (≈ 2.75 µM)	3.1 µg/mL (≈ 5.32 µM)	6.3 µg/mL (≈ 10.8 µM)					
CC(C)(C)[C@H](NC(=O)[C@H](CC1CCCC1)CN(O)C=O)C(=O)N1CCC(NC(=O)c2ccc(C#N)cc2)CC1 [Example 29, 4-Cyano-N-(1-{(S)-2-[(R)-2-cyclopentylmethyl-3-(formyl-hydroxy-amino)-propionylamino]-3,3-dimethyl-butyryl}-piperidin-4-yl)benzamide]		3.1 µg/mL (≈ 5.74 µM)	0.1 µg/mL (≈ 0.185 µM)	1.6 µg/mL (≈ 2.96 µM)	0.1 µg/mL (≈ 0.185 µM)	3.1 µg/mL (≈ 5.74 µM)					
CC(C)(C)[C@H](NC(=O)[C@H](CC1CCCC1)CN(O)C=O)C(=O)N1CCC(NC(=O)c2ccc(F)cc2)CC1 [Example 30, N-(1-{(S)-2-[(R)-2-Cyclopentylmethyl-3-(formyl-hydroxy-amino)-propionylamino]-3,3-dimethyl-butyryl}-piperidin-4-yl)-4-fluoro-benzamide]		6.3 µg/mL (≈ 11.8 µM)	0.2 µg/mL (≈ 0.375 µM)	1.6 µg/mL (≈ 3 µM)	0.2 µg/mL (≈ 0.375 µM)	6.3 µg/mL (≈ 11.8 µM)					
Cc1ccc(C(=O)NC2CCN(C(=O)[C@@H](NC(=O)[C@H](CC3CCCC3)CN(O)C=O)C(C)(C)C)CC2)cc1 [Example 38, N-(1-[(S)-2-[(R)-2-Cyclopentylmethyl-3-(formyl-hydroxy-amino)-propionylamino]-3,3-dimethyl-butyryl}-piperidin-4-yl)-4-methyl-benzamide]		6.3 µg/mL (≈ 11.9 µM)	0.1 µg/mL (≈ 0.189 µM)	1.6 µg/mL (≈ 3.03 µM)	3.1 µg/mL (≈ 5.86 µM)	3.1 µg/mL (≈ 5.86 µM)					
COc1ccc(C(=O)NC2CCN(C(=O)[C@@H](NC(=O)[C@H](CC3CCCC3)CN(O)C=O)C(C)(C)C)CC2)cc1 [Example 39, N-(1-{(S)-2-[(R)-2-Cyclopentylmethyl-3-(formyl-hydroxy-amino)-propionylamino]-3,3-dimethyl-butyryl}-piperidin-4-yl)-4-methoxy-benzamide]		12.5 µg/mL (≈ 22.9 µM)	0.2 µg/mL (≈ 0.367 µM)	3.1 µg/mL (≈ 5.69 µM)	0.2 µg/mL (≈ 0.367 µM)	6.3 µg/mL (≈ 11.6 µM)					
CC(C)[C@H](NC(=O)[C@H](CC1CCCC1)CN(O)C=O)C(=O)N1CCC(NC(=O)c2ccc(C#N)cc2)CC1 [Example 41, 4-Cyano-N-(1-{(S)-2-[(R)-2-cyclopentylmethyl-3-(formyl-hydroxy-amino)-propionylamino]-3-methyl-butyryl}-piperidin-4-yl)benzamide]		6.3 µg/mL (≈ 12 µM)	0.4 µg/mL (≈ 0.761 µM)	1.6 µg/mL (≈ 3.04 µM)	0.4 µg/mL (≈ 0.761 µM)	3.1 µg/mL (≈ 5.9 µM)					
CC(C)(C)[C@H](NC(=O)[C@H](CC1CCCC1)CN(O)C=O)C(=O)N1CCC(NC(=O)c2cc(F)c(F)cc2F)CC1 [Example 44, N-(1-{(S)-2-[(R)-2-Cyclopentylmethyl-3-(formyl-hydroxy-amino)-propionylamino]-3,3-dimethyl-butyryl}-piperidin-4-yl)-2,4,5-trifluoro-benzamide]		3.1 µg/mL (≈ 5.45 µM)	0.2 µg/mL (≈ 0.352 µM)	1.6 µg/mL (≈ 2.81 µM)	0.2 µg/mL (≈ 0.352 µM)	3.1 µg/mL (≈ 5.45 µM)					
Cc1ccc(NC(=O)NC2CCN(C(=O)[C@@H](NC(=O)[C@H](CC3CCCC3)CN(O)C=O)C(C)(C)C)CC2)cc1 [Example 47, (R)-2-Cyclopentylmethyl-N-{(S)-2,2-dimethyl-1-[4-(3-p-tolyl-ureido)-piperidine-1-carbonyl]-propyl}-3-(formyl-hydroxy-amino)-propionamide]	> 4000 mg/kg										
CC(C)(C)[C@H](NC(=O)[C@H](CC1CCCC1)CN(O)C=O)C(=O)N1CCC(NC(=O)Nc2ccc(C(F)(F)F)cc2)CC1 [Example 48, (R)-2-Cyclopentylmethyl-N-((S)-2,2-dimethyl-1-{4-[3-(4-trifluoromethyl-phenyl)-ureido)-piperidine-1-carbonyl}-propyl)-3-(formyl-hydroxy-amino)-propionamide]		6.3 µg/mL (≈ 10.5 µM)	0.2 µg/mL (≈ 0.335 µM)	1.6 µg/mL (≈ 2.68 µM)	0.2 µg/mL (≈ 0.335 µM)	3.1 µg/mL (≈ 5.19 µM)					
CC(C)(C)[C@H](NC(=O)[C@H](CC1CCCC1)CN(O)C=O)C(=O)N1CCC(NS(=O)(=O)c2ccc(C(F)(F)F)cc2)CC1 [Example 50, (R)-2-Cyclopentylmethyl-N-{(S)-2,2-dimethyl-1-[4-(4-trifluoromethyl-benzenesulfonylamino)-piperidine-1-carbonyl]-propyl}-3-(formyl-hydroxy-amino)-propionamide]		6.3 µg/mL (≈ 10.2 µM)	0.4 µg/mL (≈ 0.646 µM)	1.6 µg/mL (≈ 2.59 µM)	0.4 µg/mL (≈ 0.646 µM)	3.1 µg/mL (≈ 5.01 µM)					
CC(=O)NC[C@H]1CN(c2ccc(N3CCOCC3)c(F)c2)C(=O)O1 [Linezolid, reference compound]		1.6 µg/mL (≈ 4.74 µM)	1.6 µg/mL (≈ 4.74 µM)	0.8 µg/mL (≈ 2.37 µM)	0.8 µg/mL (≈ 2.37 µM)	0.8 µg/mL (≈ 2.37 µM)					
CN[C@H](CC(C)C)C(=O)N[C@H]1C(=O)N[C@@H](CC(N)=O)C(=O)N[C@H]2C(=O)N[C@H]3C(=O)N[C@H](C(=O)N[C@H](C(=O)O)c4cc(O)cc(O)c4-c4cc3ccc4O)[C@H](O)c3ccc(c(Cl)c3)Oc3cc2cc(c3O[C@@H]2O[C@H](CO)[C@@H](O)[C@H](O)[C@H]2O[C@H]2C[C@](C)(N)[C@H](O)[C@H](C)O2)Oc2ccc(cc2Cl)[C@H]1O [Vancomycin, reference compound]							3.1 µg/mL (≈ 2.14 µM)	1.6 µg/mL (≈ 1.1 µM)	0.8 µg/mL (≈ 0.552 µM)	0.8 µg/mL (≈ 0.552 µM)	> 100 µg/mL
